This is an account of results in patent publication US20230348415A1, “BISPECIFIC ANTAGONISTS OF RETINOL-BINDING PROTEIN 4 THAT STABILIZE TRANSTHYRETIN TETRAMERS, THEIR PREPARATION, AND USE IN THE TREATMENT OF COMMON AGE-RELATED COMORBIDITIES” (The Trustees of Columbia University in the City of New York, priority 2020, published 2023).

The structures appear in SMILES notation.

The nature of data set [1]: In vivo PK in CD-1 mice (IV and PO). The settings on record: male CD-1 mice. Also on record: species or system mouse. The method, then:
• IV dosing vehicles: 3% DMA/45% PEG300/12% ethanol/40% sterile water • PO dosing vehicle: 2% Tween 80 in 0.9% saline • Dose formulation: The dose formulation was prepared by the step-wise addition (in the order listed) of the individual components of the vehicle to a weighed quantity of test compound in a volume that yielded the desired final concentration. Each formulation was prepared by mixing a weighed quantity of test compound with the appropriate volume of vehicle. • Dosing Solution Analysis: The dosing solutions were analyzed by LC-MS/MS. The dosing solutions were diluted into mouse blood and analyzed in triplicate. All concentrations are expressed as mg/mL of the free base. The nominal dosing level was used in all calculations for Group 1.
• Species and strain: mouse; male CD-1 • Mean weight: 0.034 kg for the IV arm; 0.027 kg for PO arm • Number: 6 animals total (three animals per dosing group (Group 1 (IV) and Group 2 (PO)), per study) • COMPLIANCE: This non-clinical study followed established practices and standard operating procedures of Absorption Systems as well as the study protocol. This study was exploratory in nature and was not conducted in accordance with the principles set forth in the United States Food and Drug Administration (FDA) Good Laboratory Practice (GLP) Regulations, 21 Code of Federal regulations (CFR) Part 58. The report is archived in a validated scientific data management system. Electronic signatures comply with the regulation 21 CFR Part 11.
Blood was collected from mice at pre-dose and at 5, 15 and 30 min, and 1, 2, 4, 8, 24 and 48 h post-dose. Hemolyzed blood samples were extracted by protein precipitation using acetonitrile. Following protein extraction with acetonitrile, compound levels were measured by LC-MS/MS. Pharmacokinetic parameters were calculated from the time course of the blood concentrations. Pharmacokinetic parameters were determined with Phoenix WinNonlin (v8.0) software using a non-compartmental model. The maximum blood concentrations (CO) after IV dosing were estimated by extrapolation of the first two time points back to t=0. The maximum blood concentration (Cmax) and the time to reach maximum blood concentration (tmax) after PO dosing were observed from the data. The area under the time concentration curve (AUC) was calculated using the linear trapezoidal rule with calculation to the last quantifiable data point, and with extrapolation to infinity if applicable. Blood half-life (t ½) was calculated from 0.693/slope of the terminal elimination phase. Mean residence time, MRT, was calculated by dividing the area under the moment curve (AUMC) by the AUC. Clearance (CL) was calculated from dose/AUC. Steady-state volume of distribution (Vss) was calculated from CL*MRT. Bioavailability was determined by dividing the individual dose normalized PO AUC∞ values by the average dose-normalized IV AUC∞ value. Any samples below the limit of quantitation (1.00 ng/mL) were treated as zero for pharmacokinetic data analysis.

Data set [2] is described as follows: Metabolic stability and clearance in cynomolgus monkey liver microsomes. Format: in vitro ADME. As to conditions: 30 minute incubation. The method, then: The results of metabolic stability determinations for novel compounds and testosterone (positive control) were conducted in the presence of human, rat, mouse, and monkey liver microsomes. Values shown are percent of parent remaining after a 30 minute incubation. All measurements were done in duplicate. Assay results for testosterone were within an acceptable range.
Mixed-gender human liver microsomes (Lot #1710084), male Sprague-Dawley rat liver microsomes (Lot #1610290), male CD-1 mouse liver microsomes (Lot #1710069), and male Cynomolgous liver microsomes (Lot #1510193) were purchased from XenoTech. The reaction mixture, minus NADPH, was prepared as described below. The test article was added into the reaction mixture at a final concentration of 1 μM. The control compound, testosterone, was run simultaneously with the test article in a separate reaction. An aliquot of the reaction mixture (without cofactor) was equilibrated in a shaking water bath at 37° C. for 3 minutes. The reaction was initiated by the addition of cofactor, and the mixture was incubated in a shaking water bath at 37° C. Aliquots (100 μL) were withdrawn at 0, 10, 20, 30, and 60. […] Half-lives were calculated using GraphPad software, fitting to a single-phase exponential decay equation.
A general note: Liver microsomes are vesicles of endoplasmic reticulum, rich in cytochrome P450 enzymes.

The next data set concerns the target RBP4 (Homo sapiens (Human), UniProt P02753). Nature of the data set: RBP4 SPA binding assay (displacement of 3H-retinol). As to conditions: read-out: RBP4 SPA IC50. In general terms: In a radioligand displacement assay an active substance lowers the binding of a labelled ligand.
Data set [3] can be described thus: Plasma protein binding, rat plasma. Format: in vitro ADME. As to conditions: Sprague Dawley, pH 7.4, read-out: % PPB, R (converted). The method, then:
Plasma protein binding (PPB) for compounds determination for compound (±)-44 in PBS (pH 7.4) was conducted by Eurofins using equilibrium dialysis of plasma with HPLC-UV/Vis detection.
The peak areas of the test compound in the buffer and test samples were used to calculate percent binding and recovery according to the following formulas:
• Areap=Peak area of analyte in protein matrix • Areab=Peak area of analyte in buffer • Areac=Peak area of analyte in control sample

Turning to `Cc1cc(C(=O)O)nc(N2CCC(COc3ccccc3C(F)(F)F)C2)n1` (racemic) [Compound (±)-44, (±)-6-Methyl-2-(3-((2-(trifluoromethyl)phenoxy)methyl)pyrrolidin-1-yl)pyrimidine-4-carboxylic Acid], the CL in data set [1] (IV 2 mg/kg) turned out to be 0.832 mL/min/kg. In data set [1] (PO 5 mg/kg), the AUCINF stood at 52439 ng·h/mL and the t1/2 worked out at 9.9 h. Further, in data set [1] (mouse, whole blood, IV 2 mg/kg), the AUC(0-inf) was 40300 ng·h/mL, the AUC(0-t) is 39500 ng·h/mL, the clearance is 0.832 mL/min/kg and the half-life is 8.6 h. The C0 in data set [1] (mouse, whole blood, IV 2 mg/kg, blood) worked out at 9130 ng/mL. In addition, the Vd in data set [1] (mouse, whole blood, IV 2 mg/kg, read-out: Vss) was found to be 0.518 L/kg. Besides, in data set [1] (mouse, whole blood, PO 5 mg/kg vs IV 2 mg/kg), the bioavailability is 52%. Further, in data set [1] (mouse, whole blood, PO 5 mg/kg), the AUC(0-inf) worked out at 52400 ng·h/mL, the AUC(0-t) turned out to be 50400 ng·h/mL, the Tmax is 0.83 h and the half-life is 9.9 h. In data set [1] (mouse, whole blood, PO 5 mg/kg, blood), this compound registered a Cmax of 3030 ng/mL. Moreover, in data set [2], the “Liver Microsomal Stability (% remaining at 30 min), cyno LM” value is 103%. Further, at RBP4, the IC50 was found to be 80 nM. Also, in data set [3], the fraction unbound is 0.04.

One may read the AUC(0-inf) as total exposure, with the tail of the curve extrapolated. The AUC(0-t) is the area under the concentration-time curve up to a stated or last time point. One may read the half-life as the time needed for the level to fall by half in the phase considered. In general, bioavailability refers to dose-corrected exposure relative to a reference, in per cent. What is called Tmax is the time at which the peak concentration occurs. The Cmax is the maximum level reached in the sampled fluid or tissue. In general, IC50 refers to the concentration that gives 50% inhibition.
